“And” between values parts separate entries of the source, which are not always exact repeats. Identical values can stand only once.
Legend:
rat TRPV2-4M = target: T1, rat TRPV2-4M (Rattus norvegicus, UniProt Q9WUD2, F472S/L507M/L510T/Q530E); test: Two-electrode voltage clamp, TRPV2-4M in oocytes; assay type: cell-based; settings: RTx 100 nM, room temperature, ±60 mV
T1 construct: expressed in transfected cells; host or cells: Xenopus laevis oocytes
T1 sequence (Q9WUD2 1-761 F472S/L507M/L510T/Q530E): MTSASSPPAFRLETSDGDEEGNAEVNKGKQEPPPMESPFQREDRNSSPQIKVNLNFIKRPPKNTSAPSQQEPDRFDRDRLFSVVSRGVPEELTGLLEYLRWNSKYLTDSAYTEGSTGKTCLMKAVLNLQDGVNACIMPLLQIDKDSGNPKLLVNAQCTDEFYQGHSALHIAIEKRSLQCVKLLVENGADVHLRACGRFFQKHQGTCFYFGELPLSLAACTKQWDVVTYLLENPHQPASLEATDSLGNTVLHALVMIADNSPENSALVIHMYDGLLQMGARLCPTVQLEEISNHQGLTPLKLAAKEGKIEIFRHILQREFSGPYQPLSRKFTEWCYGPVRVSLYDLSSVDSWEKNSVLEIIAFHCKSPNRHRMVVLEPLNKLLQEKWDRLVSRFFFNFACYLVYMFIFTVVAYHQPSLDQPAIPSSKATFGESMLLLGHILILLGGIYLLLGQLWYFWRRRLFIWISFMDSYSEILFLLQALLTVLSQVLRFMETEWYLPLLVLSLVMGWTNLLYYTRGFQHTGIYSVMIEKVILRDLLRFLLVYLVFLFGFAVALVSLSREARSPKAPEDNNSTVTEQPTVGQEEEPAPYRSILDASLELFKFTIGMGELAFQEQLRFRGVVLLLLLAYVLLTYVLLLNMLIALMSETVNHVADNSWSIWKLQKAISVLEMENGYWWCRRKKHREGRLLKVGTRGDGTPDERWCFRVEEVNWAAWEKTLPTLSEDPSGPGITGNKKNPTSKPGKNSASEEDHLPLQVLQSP
Protocol: (§1) All channel constructs were expressed in Xenopus laevis oocytes and studied using the two-electrode voltage clamp technique (TEVC) following 1–4 days of incubation after cRNA injection. The animal care and experimental procedures were performed in accordance with the Guide for the Care and Use of Laboratory Animals and were approved by the Animal Care and Use Committee of the National Institute of Neurological Disorders and Stroke (Animal protocol number 1253–17). Oocytes were removed surgically and incubated with agitation for 1 hr in a solution containing (in mM) 82.5 NaCl, 2.5 KCl, 1 MgCl2, 5 HEPES, pH 7.6 (with NaOH), and collagenase (2 mg/ml; Worthington Biochemical, Lakewood, NJ). Defolliculated oocytes were injected with cRNA for each of the constructs and incubated at 17°C in a solution containing (in mM) 96 NaCl, 2 KCl, 1 MgCl2, 1.8 CaCl2, 5 HEPES, pH 7.6 (with NaOH), and gentamicin (50 μg/ml, GIBCO-BRL, Gaithersburg, MD). Oocyte membrane voltage was controlled using an OC-725C oocyte clamp (Warner Instruments, Hamden, CT). Data were filtered at 1–3 kHz and digitized at 20 kHz using pClamp software (Molecular Devices, Sunnyvale, CA) and a Digidata 1440A digitizer (Axon Instruments). Microelectrode resistances were 0.1–1 MΩ when filled with 3 M KCl. For recording TRP channel currents, the external recording solution contained (in mM) 100 KCl, 10 HEPES, pH 7.6 (with KOH). […]

[1] = system: TRPV3-6M + V587L, A606V, F625L, F656I or F666Y; test: Two-electrode voltage clamp, TRPV3-6M with individual pore mutations (strong RTx responders); assay type: cell-based, mouse; settings: RTx 100 nM, room temperature; magnitude very similar to 2-APB 3 mM
Protocol: as §1

TRPV3-6M/4PM = target: T2, TRPV3-6M/4PM (Mus musculus, UniProt Q8K424, A560T/F522S/F625L/F656I/F666Y/H523E/L557M/Q580E/V587L/W521Y); test: Two-electrode voltage clamp, TRPV3-6M/4PM in oocytes; assay type: cell-based; settings: RTx 100 nM, 2-APB 3 mM, +60 mV
T2 construct: expressed in transfected cells; host or cells: Xenopus laevis oocytes
T2 sequence (Q8K424 1-791 W521Y/F522S/H523E/L557M/A560T/Q580E/V587L/F625L/F656I/F666Y): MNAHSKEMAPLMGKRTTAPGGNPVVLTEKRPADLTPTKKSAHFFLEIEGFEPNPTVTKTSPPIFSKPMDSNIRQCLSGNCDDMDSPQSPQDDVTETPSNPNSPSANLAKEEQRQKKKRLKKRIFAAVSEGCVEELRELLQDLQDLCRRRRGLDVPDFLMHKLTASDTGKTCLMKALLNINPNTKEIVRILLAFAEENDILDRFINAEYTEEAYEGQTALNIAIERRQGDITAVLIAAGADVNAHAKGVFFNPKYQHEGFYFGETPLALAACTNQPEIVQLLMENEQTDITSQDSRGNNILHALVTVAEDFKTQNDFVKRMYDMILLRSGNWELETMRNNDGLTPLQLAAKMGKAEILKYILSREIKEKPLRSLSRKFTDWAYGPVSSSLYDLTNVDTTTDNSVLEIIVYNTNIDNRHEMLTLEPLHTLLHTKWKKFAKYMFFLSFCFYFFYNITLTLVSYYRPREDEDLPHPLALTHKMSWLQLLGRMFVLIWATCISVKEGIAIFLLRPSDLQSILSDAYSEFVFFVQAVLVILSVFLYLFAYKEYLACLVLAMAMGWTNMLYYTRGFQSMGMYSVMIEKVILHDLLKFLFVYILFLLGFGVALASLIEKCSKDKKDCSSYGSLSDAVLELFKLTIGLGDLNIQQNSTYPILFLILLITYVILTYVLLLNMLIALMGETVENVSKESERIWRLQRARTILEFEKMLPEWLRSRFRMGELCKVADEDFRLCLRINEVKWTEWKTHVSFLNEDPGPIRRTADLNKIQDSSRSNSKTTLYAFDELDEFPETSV
Protocol: as §1

TRPV3-4PM = TRPV3-4PM (Mus musculus, UniProt Q8K424, F625L/F656I/F666Y/V587L)
Protocol: (§2) All channel constructs were expressed in Xenopus laevis oocytes and studied using the two-electrode voltage clamp technique (TEVC) following 1–4 days of incubation after cRNA injection. The animal care and experimental procedures were performed in accordance with the Guide for the Care and Use of Laboratory Animals and were approved by the Animal Care and Use Committee of the National Institute of Neurological Disorders and Stroke (Animal protocol number 1253–17). Oocytes were removed surgically and incubated with agitation for 1 hr in a solution containing (in mM) 82.5 NaCl, 2.5 KCl, 1 MgCl2, 5 HEPES, pH 7.6 (with NaOH), and collagenase (2 mg/ml; Worthington Biochemical, Lakewood, NJ). Defolliculated oocytes were injected with cRNA for each of the constructs and incubated at 17°C in a solution containing (in mM) 96 NaCl, 2 KCl, 1 MgCl2, 1.8 CaCl2, 5 HEPES, pH 7.6 (with NaOH), and gentamicin (50 μg/ml, GIBCO-BRL, Gaithersburg, MD). Oocyte membrane voltage was controlled using an OC-725C oocyte clamp (Warner Instruments, Hamden, CT). Data were filtered at 1–3 kHz and digitized at 20 kHz using pClamp software (Molecular Devices, Sunnyvale, CA) and a Digidata 1440A digitizer (Axon Instruments). Microelectrode resistances were 0.1–1 MΩ when filled with 3 M KCl. For recording TRP channel currents, the external recording solution contained (in mM) 100 KCl, 10 HEPES, pH 7.6 (with KOH). Experiments were performed at room temperature (~22°C), except as indicated otherwise. […] Current time courses were obtained by stepping membrane voltage every 2 s from a holding potential of 0 mV to either −60 or +60 mV for 100 ms, and plotting the mean steady-state current at the end of each voltage step as a function of total recording time. I-V relations were obtained similarly, but voltage was stepped every 2 s to a different value, in 10 mV increments and starting at −60 mV.

TRPV3-A606V = TRPV3-A606V (Mus musculus, UniProt Q8K424, A606V)
Protocol: as §2

TRPV3-V587L = TRPV3-V587L (Mus musculus, UniProt Q8K424, V587L); settings: -60 mV
Protocol: as §2

Chain of TRPV3-4PM (Q8K424 whole entry V587L/F625L/F656I/F666Y): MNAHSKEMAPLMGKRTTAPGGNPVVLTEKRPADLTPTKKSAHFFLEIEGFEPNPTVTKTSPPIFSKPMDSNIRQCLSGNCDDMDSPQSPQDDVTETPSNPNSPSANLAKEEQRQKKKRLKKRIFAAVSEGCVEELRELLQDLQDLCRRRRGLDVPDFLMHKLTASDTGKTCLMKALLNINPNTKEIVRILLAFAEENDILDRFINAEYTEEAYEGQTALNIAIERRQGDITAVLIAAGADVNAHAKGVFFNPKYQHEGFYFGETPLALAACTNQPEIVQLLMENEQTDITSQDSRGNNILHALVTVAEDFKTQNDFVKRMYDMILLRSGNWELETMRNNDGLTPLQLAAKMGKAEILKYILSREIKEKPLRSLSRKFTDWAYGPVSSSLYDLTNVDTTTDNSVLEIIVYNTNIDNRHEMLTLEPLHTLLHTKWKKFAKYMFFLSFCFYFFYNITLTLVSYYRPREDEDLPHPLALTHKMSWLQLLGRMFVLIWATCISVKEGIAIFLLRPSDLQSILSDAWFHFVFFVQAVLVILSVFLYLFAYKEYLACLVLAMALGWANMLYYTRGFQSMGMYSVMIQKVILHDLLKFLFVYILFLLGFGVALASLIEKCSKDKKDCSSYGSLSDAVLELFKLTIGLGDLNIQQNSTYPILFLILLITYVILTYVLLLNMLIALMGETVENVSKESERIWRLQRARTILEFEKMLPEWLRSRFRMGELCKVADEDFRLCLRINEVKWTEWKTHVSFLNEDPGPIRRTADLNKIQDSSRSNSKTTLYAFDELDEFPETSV
Chain of TRPV3-A606V (Q8K424 whole entry A606V): as the sequence (Q8K424 whole entry V587L/F625L/F656I/F666Y) above, with L587V, A606V, L625F, I656F, Y666F counted along it
Chain of TRPV3-V587L (Q8K424 whole entry V587L): as the sequence (Q8K424 whole entry V587L/F625L/F656I/F666Y) above, with L625F, I656F, Y666F counted along it

Compound | channel activation (current response) (rat TRPV2-4M) | channel activation (current response) [1] | response to RTx compared with maximal response to 2-APB (TRPV3-6M/4PM) | s (slope) of Hill fit, 2-APB concentration-response (TRPV3-4PM; -60 mV) | shift in the apparent affinity for 2-APB (TRPV3-4PM; relative to WT TRPV3) | s (slope) of Hill fit, 2-APB concentration-response (TRPV3-A606V; -60 mV) | EC50 (TRPV3-A606V; read-out: apparent affinity (EC50) for activation by 2-APB, -60 mV, room temperature, Hill fit) [µM] | increase in the apparent affinity for 2-APB (TRPV3-A606V; relative to WT TRPV3) | s (slope) of Hill fit, 2-APB concentration-response (TRPV3-V587L) | EC50 (TRPV3-V587L; read-out: apparent affinity (EC50) for activation by 2-APB, room temperature, Hill fit) [µM]
C=C(C)[C@]12C[C@@H](C)[C@@]34O[C@](Cc5ccccc5)(O[C@@H]1[C@@H]3C=C(COC(=O)Cc1ccc(O)c(OC)c1)C[C@]1(O)C(=O)C(C)=C[C@@H]41)O2 [RTx, resiniferatoxin] | robust responses | robust RTx-activated currents | similar | – | – | – | – | – | – | –
NCCOB(c1ccccc1)c1ccccc1 [2-APB, 2-aminoethoxydiphenyl borate] | – | – | – | 1.84 | ~ 2 fold and 2 fold | 2.72 | 132 ± 7 | ~ 3.5 fold and 3.5 fold | 2.28 | 443 ± 13

Reference: paper PMC6333442, “Conserved allosteric pathways for activation of TRPV3 revealed through engineering vanilloid-sensitivity” (eLife, 2019)
